Like-named read-outs stand apart in the source and are kept apart here.
Legend:
IAV = tested on: IAV; parameters: species or system Influenza A Virus; conditions: in vivo
H1N1 WSN (A/WSN/33) [1] = tested on: H1N1 WSN (A/WSN/33); parameters: species or system influenza A virus H1N1; conditions: in vivo; for activities of the infected mice / body temperature drop / body weight drop / discomfort caused by influenza / mice died / mice in group / mortality of mice caused by H1N1 WSN infection: ip, 20 mg/kg/day
H1N1 WSN (A/WSN/33) [2] = assay: H1N1 WSN-infected mice: lung index; assay type: in vivo, influenza A virus H1N1; conditions: DPI 8; for lung injury index of mice caused by H1N1 WSN infection: 20 mg/kg/d i.p. from Day 4, vs high toxicity group, P<0.05
H1N1 WSN (A/WSN/33) [3] = assay: H1N1 WSN-infected mice: pathological section of lung tissue (HE); assay type: in vivo, influenza A virus H1N1; conditions: DPI 8; 20 mg/kg/d i.p. from Day 4
H1N1 WSN (A/WSN/33) [4] = assay: H1N1 WSN-infected mice: pulmonary vascular permeability test (Evans Blue); assay type: in vivo, influenza A virus H1N1; conditions: DPI 8; 20 mg/kg/d i.p. from Day 4; vs high toxicity group; Tamiflu P<0.05, CBD P<0.01
H1N1 WSN (A/WSN/33) [5] = assay: H1N1 WSN-infected mice: inflammatory cells in alveolar lavage fluid (Diff-Quick staining); assay type: in vivo, influenza A virus H1N1; conditions: DPI 8, 20 mg/kg/d; for number of macrophages in the alveolar lavage fluid: Tamiflu P<0.01, CBD P<0.001
H1N1 WSN [6] = assay type: cell-based, influenza A virus H1N1; conditions: 24 h
H1N1 WSN [7] = assay type: cell-based, influenza A virus H1N1; conditions: 24 h; remark: listed apart in the source
H5N1 [8] = assay type: cell-based, influenza A virus H5N1; conditions: 1 μM; 24 h
[9] = of the 119 deaths; cited from earlier work
H1N1 = tested on: H1N1; parameters: species or system influenza A virus H1N1; conditions: in vivo
H5N1 [10] = tested on: H5N1; parameters: species or system influenza A virus H5N1; conditions: in vivo
[11] = tested on: H5N1 A/great black-headed gull/Qinghai/2009 (H5N1); parameters: species or system influenza A virus H5N1; conditions: in vivo, 20 mg/kg/day
[12] = oral and systemic use; cited from earlier work
[13] = mouse, in vivo; cited from earlier work

CCOC(=O)C1=C[C@@H](OC(CC)CC)[C@H](NC(C)=O)[C@@H](N)C1 [Tamiflu, oseltamivir, reference compound]
mortality of mice caused by IAV infection (IAV; 20 mg/kg/day): significantly inhibited | activities of the infected mice (H1N1 WSN (A/WSN/33) [1]): significantly increased | body temperature drop (H1N1 WSN (A/WSN/33) [1]): significantly inhibited | body weight drop (H1N1 WSN (A/WSN/33) [1]): significantly inhibited | discomfort caused by influenza (H1N1 WSN (A/WSN/33) [1]): significantly alleviated | mice died / mice in group (H1N1 WSN (A/WSN/33) [1]): 9/20 | mortality of mice caused by H1N1 WSN infection (H1N1 WSN (A/WSN/33) [1]): significantly reduced | lung injury index of mice caused by H1N1 WSN infection (H1N1 WSN (A/WSN/33) [2]): significantly reduced | inflammatory cell infiltration (lung pathology) (H1N1 WSN (A/WSN/33) [3]): significantly reduced | mouse pulmonary capillary permeability caused by H1N1 WSN infection (H1N1 WSN (A/WSN/33) [4]): significantly reduced | number of macrophages in the alveolar lavage fluid (H1N1 WSN (A/WSN/33) [5]): significantly reduced | expression of PA gene in H1N1 WSN (H1N1 WSN [6]; 10 μM): no significant inhibitory effect | expression of PB1 gene in H1N1 WSN (H1N1 WSN [6]; 10 μM): no significant inhibitory effect | expression of NP gene in H1N1 WSN (H1N1 WSN [7]; 10 μM): no significant inhibitory effect | expression of PA gene in H1N1 WSN (H1N1 WSN [7]; 10 μM): no significant inhibitory effect | expression of PB1 gene in H1N1 WSN (H1N1 WSN [7]; 10 μM): no significant inhibitory effect | expression of PB2 gene in H1N1 WSN (H1N1 WSN [7]; 10 μM): no significant inhibitory effect | expression of NP gene in H5N1 (H5N1 [8]): significantly reduced | expression of PA gene in H5N1 (H5N1 [8]): significantly reduced | expression of PB1 gene in H5N1 (H5N1 [8]): significantly reduced | expression of PB2 gene in H5N1 (H5N1 [8]): significantly reduced | deaths who took Tamiflu that experienced severe illness or death within 12 hours after taking the drug [9]: 38

C=C(C)[C@@H]1CCC(C)=C[C@H]1c1c(O)cc(CCCCC)cc1O [CBD, Cannabidiol]
mortality of mice caused by IAV infection (IAV; 20 mg/kg/day): significantly inhibited | mortality of mice caused by IAV infection (IAV; 60 mg/kg/day): significantly inhibited | mortality in mice caused by IAV infection (H1N1): inhibited the same mortality | mortality in mice caused by IAV infection (H5N1 [10]): inhibited the same mortality | mortality, CBD group compared with Tamiflu group (H1N1 WSN (A/WSN/33) [1]): no significant difference | activities of the infected mice (H1N1 WSN (A/WSN/33) [1]): significantly increased | body temperature drop (H1N1 WSN (A/WSN/33) [1]): significantly inhibited | body weight drop (H1N1 WSN (A/WSN/33) [1]): significantly inhibited | discomfort caused by influenza (H1N1 WSN (A/WSN/33) [1]): significantly alleviated | mice died / mice in group (H1N1 WSN (A/WSN/33) [1]): 10/20 | mortality of mice caused by H1N1 WSN infection (H1N1 WSN (A/WSN/33) [1]): significantly reduced | lung injury index of mice caused by H1N1 WSN infection (H1N1 WSN (A/WSN/33) [2]): significantly reduced | lung index, CBD group compared with Tamiflu group (H1N1 WSN (A/WSN/33) [2]; both 20 mg/kg/d): no significant difference | inflammatory cell infiltration (lung pathology) (H1N1 WSN (A/WSN/33) [3]): significantly reduced | mouse pulmonary capillary permeability caused by H1N1 WSN infection (H1N1 WSN (A/WSN/33) [4]): significantly reduced | number of neutrophils in the alveolar lavage fluid, compared with the Tamiflu group (H1N1 WSN (A/WSN/33) [5]): very significant reduction | number of macrophages in the alveolar lavage fluid, compared with the Tamiflu group (H1N1 WSN (A/WSN/33) [5]; P<0.05): significant reduction | number of macrophages in the alveolar lavage fluid (H1N1 WSN (A/WSN/33) [5]): significantly reduced | number of lymphocytes in the alveolar lavage fluid (H1N1 WSN (A/WSN/33) [5]; vs IAV treatment group, P<0.01): significantly reduced | number of neutrophils in the alveolar lavage fluid (H1N1 WSN (A/WSN/33) [5]; vs high toxicity treatment group, P<0.001): significantly reduced | expression of PA gene in H1N1 WSN (H1N1 WSN [6]; 5 μM): significantly reduced | expression of PB1 gene in H1N1 WSN (H1N1 WSN [6]; 5 μM): significantly reduced | expression of NP gene in H1N1 WSN (H1N1 WSN [7]; 5 μM): significantly reduced | expression of PA gene in H1N1 WSN (H1N1 WSN [7]; 5 μM): significantly reduced | expression of PB1 gene in H1N1 WSN (H1N1 WSN [7]; 5 μM): significantly reduced | expression of PB2 gene in H1N1 WSN (H1N1 WSN [7]; 5 μM): significantly reduced | activities of the infected mice [11]: significantly increased | discomfort caused by influenza [11]: significantly alleviated | mortality (mice died / mice in group) [11]: 10/10 | mortality compared with the influenza group [11]: no significant difference | survival time of mice after H5N1 infection prolonged by [11]: 24 h | body temperature drop ([11]; ip): significantly inhibited | body weight drop caused by H5N1 ([11]; ip): Significantly Inhibited | expression of NP gene in H5N1 (H5N1 [8]): significantly reduced | expression of PA gene in H5N1 (H5N1 [8]): significantly reduced | expression of PB1 gene in H5N1 (H5N1 [8]): significantly reduced | expression of PB2 gene in H5N1 (H5N1 [8]): significantly reduced | severity of joint damage and the acute and chronic courses of arthritis [12]: significantly reduce | LPS-induced acute lung injury [13]: inhibits

From patent US11452707B2, “Use of cannabidiol in preparation of drugs for resisting against influenza” (priority 2017, dated 2022)
